Laboratory results as given in US10294202B2, “Pyrrolidinones as herbicides” (FMC Corporation, priority 2013, dated 2019).

Key:
oilseed rape = assay: Test D pre-/postemergence herbicide test; assay type: in vivo, Brassica napus; settings: for Plant response rating: Postemergence, Oilseed Rape, scale 0 to 100; for Plant response rating, Oilseed Rape: Preemergence, scale 0 to 100 (0 no effect, 100 complete control)
From the text: (§1) Seeds of plant species selected from bluegrass (annual bluegrass, Poa annua), blackgrass (Alopecurus myosuroides), canarygrass (littleseed canarygrass, Phalaris minor), chickweed (common chickweed, Stellaria media), galium (catchweed bedstraw, Galium aparine), bromegrass, downy (downy bromegrass, Bromus tectorum), field poppy (Papaver rhoeas), field violet (Viola arvensis), foxtail, green (green foxtail, Setaria viridis), deadnettle (henbit deadnettle, Lamium amplexicaule), ryegrass, Italian (Italian ryegrass, Lolium multiflorum), kochia (Kochia scoparia), lambsquarters (Chenopodium album), oilseed rape (Brassica napus), pigweed (Amaranthus retroflexus), chamomile (scentless chamomile, Matricaria inodora), Russian thistle (Salsola kali), speedwell (bird's-eye speedwell, Veronica persica), barley, spring (spring barley, Hordeum vulgare), wheat, spring (spring wheat, Triticum aestivum), buckwheat, wild (wild buckwheat, Polygonum convolvulus), mustard, wild (wild mustard, Sinapis arvensis), oat, wild (wild oat, Avena fatua), radish, wild (wild radish, Raphanus raphanistrum), […]), barley, winter (winter barley, Hordeum vulgare), and wheat, winter (winter wheat, Triticum aestivum) were planted into a silt loam soil and treated preemergence with test chemicals formulated in a non-phytotoxic solvent mixture which included a surfactant. At the same time, these species were planted in pots containing Redi-Earth® planting medium (Scotts Company, 14111 Scottslawn Road, Marysville, Ohio 43041) comprising spaghnum peat moss, vermiculite, wetting agent and starter nutrients and treated with postemergence applications of the test chemicals formulated in the same manner. Plants ranged in height from 2 to 18 cm (1- to 4-leaf stage). Treated plants and controls were maintained in a controlled growth environment for 7 to 21 days after which time all species were compared to controls and visually evaluated. Plant response ratings, summarized in Table D, are based on a scale of 0 to 100 where 0 is no effect and 100 is complete control. A dash (-) response means no test result.

Russian thistle = assay: Test D pre-/postemergence herbicide test; assay type: in vivo, Salsola kali; settings: for Plant response rating: Postemergence, Russian Thistle, scale 0 to 100; for Plant response rating, Russian Thistle: Preemergence, scale 0 to 100 (0 no effect, 100 complete control)
From the text: as §1

bromegrass, downy = assay: Test C pre-/postemergence herbicide test; assay type: in vivo, Bromus tectorum
From the text: Seeds of plant species selected from blackgrass (Alopecurus myosuroides), ryegrass, Italian (Italian ryegrass, Lolium multiflorum), wheat (winter wheat, Triticum aestivum), galium (catchweed bedstraw, Galium aparine), corn (Zea mays), crabgrass, large (large crabgrass, Digitaria sanguinalis), foxtail, giant (giant foxtail, Setaria faberii), johnsongrass (Sorghum halepense), lambsquarters (Chenopodium album), morningglory (Ipomoea coccinea), nutsedge, yellow (yellow nutsedge, Cyperus esculentus), pigweed (Amaranthus retroflexus), ragweed (common ragweed, Ambrosia elatior), soybean (Glycine max), barnyardgrass (Echinochloa crus-galli), oilseed rape (Brassica napus), waterhemp (common waterhemp, Amaranthus rudis), kochia (Kochia scoparia), oat, wild (wild oat, Avena fatua), surinam grass (Brachiaria decumbens), foxtail, green (green foxtail, Setaria viridis), goosegrass (Eleusine indica), bromegrass, downy (downy bromegrass, Bromus tectorum), nightshade (eastern black nightshade, Solanum ptycanthum), cocklebur (common cocklebur, Xanthium strumarium), cupgrass, woolly (woolly cupgrass, Eriochloa villosa), bermudagrass (Cynodon dactylon), sunflower, (common oilseed sunflower, Helianthus annuus), Russian thistle (Salsola kali) and velvetleaf (Abutilon theophrasti) were planted into a blend of loam soil and sand and treated preemergence with test chemicals formulated in a non-phytotoxic solvent mixture which included a surfactant. At the same time, plants selected from these crop and weed species and also barley (winter barley, Hordeum vulgare), […]), chickweed (common chickweed, Stellaria media), deadnettle (henbit deadnettle, Lamium amplexicaule), and canarygrass (littleseed canarygrass, Phalaris minor) were planted in pots containing Redi-Earth® planting medium (Scotts Company, 14111 Scottslawn Road, Marysville, Ohio 43041) comprising spaghnum peat moss, vermiculite, wetting agent and starter nutrients and treated with postemergence applications of test chemicals formulated in the same manner. Plants ranged in height from 2 to 18 cm (1- to 4-leaf stage) for postemergence treatments. Treated plants and controls were maintained in a greenhouse for 13 to 15 days, after which time all species were compared to controls and visually evaluated. Plant response ratings, summarized in Table C, are based on a scale of 0 to 100 where 0 is no effect and 100 is complete control. A dash (-) response means no test result.

[1] = Preemergence, 62 g ai/ha, scale 0 to 100
[2] = Preemergence, 125 g ai/ha, scale 0 to 100 (0 no effect, 100 complete control)
[3] = Preemergence, 31 g ai/ha, scale 0 to 100 (0 no effect, 100 complete control)
[4] = Preemergence, 250 g ai/ha, scale 0 to 100 (0 no effect, 100 complete control)
[5] = Postemergence, 31 g ai/ha, scale 0 (no effect) to 100 (complete control)
[6] = Postemergence, 62 g ai/ha, scale 0 to 100 (0 no effect, 100 complete control)
[7] = Postemergence, 125 g ai/ha, scale 0 to 100 (0 no effect, 100 complete control)
[8] = Postemergence, 250 g ai/ha, scale 0 to 100 (0 no effect, 100 complete control)

Structure (SMILES): O=C1NCC(c2ccc(F)c(F)c2)C1C(=O)Nc1ccccc1C(F)(F)F (racemic) [Compound 6]
- Plant response rating (oilseed rape; 16 g ai/ha): 10
- Plant response rating (oilseed rape; 31 g ai/ha): 10
- Plant response rating (oilseed rape; 62 g ai/ha): 10
- Plant response rating (oilseed rape; 125 g ai/ha): 15
- Plant response rating (oilseed rape; 250 g ai/ha): 20
- Plant response rating, Oilseed Rape (oilseed rape; 62 g ai/ha): 0
- Plant response rating, Oilseed Rape (oilseed rape; 125 g ai/ha): 10
- Plant response rating, Oilseed Rape (oilseed rape; 16 g ai/ha): 0
- Plant response rating, Oilseed Rape (oilseed rape; 31 g ai/ha): 0
- Plant response rating, Oilseed Rape (oilseed rape; 250 g ai/ha): 20
- Plant response rating (Russian thistle; 16 g ai/ha): 0
- Plant response rating (Russian thistle; 31 g ai/ha): 0
- Plant response rating (Russian thistle; 62 g ai/ha): 0
- Plant response rating (Russian thistle; 125 g ai/ha): 0
- Plant response rating (Russian thistle; 250 g ai/ha): 100
- Plant response rating, Russian Thistle (Russian thistle; 62 g ai/ha): 0
- Plant response rating, Russian Thistle (Russian thistle; 125 g ai/ha): 10
- Plant response rating, Russian Thistle (Russian thistle; 16 g ai/ha): 0
- Plant response rating, Russian Thistle (Russian thistle; 31 g ai/ha): 0
- Plant response rating, Russian Thistle (Russian thistle; 250 g ai/ha): 30

Structure (SMILES): O=C1NCC(c2ccc(F)c(C(F)(F)F)c2)C1C(=O)Nc1cccc(F)c1F (racemic) [Compound 77]
- Plant response rating, Oilseed Rape (oilseed rape; 62 g ai/ha): 5
- Plant response rating, Oilseed Rape (oilseed rape; 125 g ai/ha): 5
- Plant response rating, Oilseed Rape (oilseed rape; 31 g ai/ha): 5
- Plant response rating, Oilseed Rape (oilseed rape; 250 g ai/ha): 5

Structure (SMILES): O=C1NCCC1C(=O)N(c1ccc(F)c(F)c1)c1ccccc1F (centres unmarked) [Compound 5, N-(3,4-difluorophenyl)-N-(2-fluorophenyl)-2-oxo-3-pyrrolidinecarboxamide]
- Plant response rating, Bromegrass, Downy (bromegrass, downy; [1]): 0
- Plant response rating, Bromegrass, Downy (bromegrass, downy; [2]): 0
- Bromegrass, Downy plant response rating (bromegrass, downy; [3]): 0
- Plant response rating, Bromegrass, Downy (bromegrass, downy; [4]): 0

Structure (SMILES): O=C1NCC(c2cc(F)c(F)c(F)c2)C1C(=O)Nc1cccc(F)c1F (centres unmarked) [Compound 48]
- Plant response rating, Bromegrass, Downy (bromegrass, downy; Postemergence, 16 g ai/ha, scale 0 to 100 (0 no effect, 100 complete control)): 0
- Plant response rating, Bromegrass, Downy (bromegrass, downy; [5]): 0
- Plant response rating, Bromegrass, Downy (bromegrass, downy; [6]): 0
- Plant response rating, Bromegrass, Downy (bromegrass, downy; [7]): 0
- Plant response rating, Bromegrass, Downy (bromegrass, downy; [1]): 0
- Plant response rating, Bromegrass, Downy (bromegrass, downy; [2]): 0
- Plant response rating, Bromegrass, Downy (bromegrass, downy; Preemergence, 16 g ai/ha, scale 0 to 100): 0
- Bromegrass, Downy plant response rating (bromegrass, downy; [3]): 0

Structure (SMILES): O=C1NCC(c2cc(F)c(F)cc2F)C1C(=O)Nc1cccc(F)c1F (centres unmarked) [Compound 50]
- Plant response rating, Bromegrass, Downy (bromegrass, downy; [5]): 0
- Plant response rating, Bromegrass, Downy (bromegrass, downy; [6]): 0
- Plant response rating, Bromegrass, Downy (bromegrass, downy; [7]): 0
- Plant response rating, Bromegrass, Downy (bromegrass, downy; [8]): 0
- Plant response rating (oilseed rape; 16 g ai/ha): 5
- Plant response rating (oilseed rape; 31 g ai/ha): 5
- Plant response rating (oilseed rape; 62 g ai/ha): 5
- Plant response rating (oilseed rape; 125 g ai/ha): 5
- Plant response rating, Oilseed Rape (oilseed rape; 62 g ai/ha): 0
- Plant response rating, Oilseed Rape (oilseed rape; 125 g ai/ha): 0
- Plant response rating, Oilseed Rape (oilseed rape; 16 g ai/ha): 0
- Plant response rating, Oilseed Rape (oilseed rape; 31 g ai/ha): 0
- Plant response rating (Russian thistle; 16 g ai/ha): 5
- Plant response rating (Russian thistle; 31 g ai/ha): 0
- Plant response rating (Russian thistle; 62 g ai/ha): 10
- Plant response rating (Russian thistle; 125 g ai/ha): 5
- Plant response rating, Russian Thistle (Russian thistle; 62 g ai/ha): 0
- Plant response rating, Russian Thistle (Russian thistle; 125 g ai/ha): 0
- Plant response rating, Russian Thistle (Russian thistle; 16 g ai/ha): 0
- Plant response rating, Russian Thistle (Russian thistle; 31 g ai/ha): 0

Structure (SMILES): O=C1NCC(c2ccc(Cl)c(F)c2)C1C(=O)Nc1cccc(F)c1F (centres unmarked) [Compound 52]
- Plant response rating, Bromegrass, Downy (bromegrass, downy; [5]): 0
- Plant response rating, Bromegrass, Downy (bromegrass, downy; [6]): 0
- Plant response rating, Bromegrass, Downy (bromegrass, downy; [7]): 0
- Plant response rating, Bromegrass, Downy (bromegrass, downy; [8]): 10
- Plant response rating, Bromegrass, Downy (bromegrass, downy; [1]): 0
- Plant response rating, Bromegrass, Downy (bromegrass, downy; [2]): 0
- Bromegrass, Downy plant response rating (bromegrass, downy; [3]): 0
- Plant response rating, Bromegrass, Downy (bromegrass, downy; [4]): 0
- Plant response rating (oilseed rape; 16 g ai/ha): 0
- Plant response rating (oilseed rape; 31 g ai/ha): 0
- Plant response rating (oilseed rape; 62 g ai/ha): 0
- Plant response rating (oilseed rape; 125 g ai/ha): 10
- Plant response rating (oilseed rape; 250 g ai/ha): 25
- Plant response rating, Oilseed Rape (oilseed rape; 62 g ai/ha): 0
- Plant response rating, Oilseed Rape (oilseed rape; 125 g ai/ha): 10
- Plant response rating, Oilseed Rape (oilseed rape; 16 g ai/ha): 0
- Plant response rating, Oilseed Rape (oilseed rape; 31 g ai/ha): 0
- Plant response rating, Oilseed Rape (oilseed rape; 250 g ai/ha): 10
- Plant response rating (Russian thistle; 16 g ai/ha): 0
- Plant response rating (Russian thistle; 31 g ai/ha): 0
- Plant response rating (Russian thistle; 62 g ai/ha): 0
- Plant response rating (Russian thistle; 125 g ai/ha): 0
- Plant response rating (Russian thistle; 250 g ai/ha): 0
- Plant response rating, Russian Thistle (Russian thistle; 62 g ai/ha): 0
- Plant response rating, Russian Thistle (Russian thistle; 125 g ai/ha): 20
- Plant response rating, Russian Thistle (Russian thistle; 16 g ai/ha): 0
- Plant response rating, Russian Thistle (Russian thistle; 31 g ai/ha): 0
- Plant response rating, Russian Thistle (Russian thistle; 250 g ai/ha): 30

Structure (SMILES): O=C1NCC(c2ccc(F)c(Cl)c2)C1C(=O)Nc1ccccc1F (centres unmarked) [Compound 60]
- Plant response rating, Bromegrass, Downy (bromegrass, downy; [5]): 0
- Plant response rating, Bromegrass, Downy (bromegrass, downy; [6]): 0
- Plant response rating, Bromegrass, Downy (bromegrass, downy; [7]): 5
- Plant response rating, Bromegrass, Downy (bromegrass, downy; [1]): 0
- Plant response rating, Bromegrass, Downy (bromegrass, downy; [2]): 0
- Bromegrass, Downy plant response rating (bromegrass, downy; [3]): 0

Structure (SMILES): O=C1NCC(c2cccc(OC(F)(F)F)c2)C1C(=O)Nc1ccccc1F (centres unmarked) [Compound 69]
- Bromegrass, Downy plant response rating (bromegrass, downy; Preemergence, 31 g ai/ha, scale 0 to 100, 0 is no effect and 100 is complete control): 0
- Plant response rating, Bromegrass, Downy (bromegrass, downy; [1]): 0
- Plant response rating, Bromegrass, Downy (bromegrass, downy; [2]): 0
- Plant response rating (scale of 0 to 100), Bromegrass, Downy (bromegrass, downy; Preemergence, 250 g ai/ha): 0

Structure (SMILES): O=C1NCC(c2ccc(C(F)(F)F)cc2)C1C(=O)Nc1ccccc1F (centres unmarked) [Compound 231]
- Plant response rating (oilseed rape; 31 g ai/ha): 15
- Plant response rating (oilseed rape; 62 g ai/ha): 10
- Plant response rating (oilseed rape; 125 g ai/ha): 20
- Plant response rating (oilseed rape; 250 g ai/ha): 40
- Plant response rating, Oilseed Rape (oilseed rape; 62 g ai/ha): 0
- Plant response rating, Oilseed Rape (oilseed rape; 125 g ai/ha): 45
- Plant response rating, Oilseed Rape (oilseed rape; 31 g ai/ha): 0
- Plant response rating, Oilseed Rape (oilseed rape; 250 g ai/ha): 55
- Plant response rating (Russian thistle; 31 g ai/ha): 20
- Plant response rating (Russian thistle; 62 g ai/ha): 35
- Plant response rating (Russian thistle; 125 g ai/ha): 35
- Plant response rating (Russian thistle; 250 g ai/ha): 35
- Plant response rating, Russian Thistle (Russian thistle; 62 g ai/ha): 5
- Plant response rating, Russian Thistle (Russian thistle; 125 g ai/ha): 15
- Plant response rating, Russian Thistle (Russian thistle; 31 g ai/ha): 0
- Plant response rating, Russian Thistle (Russian thistle; 250 g ai/ha): 30
